Data from the NIST ThermoML archive (doi:10.1016/j.jct.2005.03.019).

Experiment: xn = mol fraction of the nth substance listed
Conditions: 101 kPa, Liquid, Vibrating tube method

CC1COC(=O)O1 (configuration not stated) [4-methyl-1,3-dioxolan-2-one] + CCc1ccccc1
Conditions | mass density [kg/m3]
293.15 K, x2 = 0 | 1200.3
293.15 K, x2 = 0.0592 | 1173.5
293.15 K, x2 = 0.1139 | 1149.9
293.15 K, x2 = 0.1749 | 1124.6
293.15 K, x2 = 0.2471 | 1096.1
293.15 K, x2 = 0.3274 | 1066.1
293.15 K, x2 = 0.3856 | 1045.5
293.15 K, x2 = 0.4527 | 1022.7
293.15 K, x2 = 0.5049 | 1005.6
293.15 K, x2 = 0.5672 | 986.1
293.15 K, x2 = 0.6368 | 965.1
293.15 K, x2 = 0.6978 | 947.4
293.15 K, x2 = 0.7529 | 932
293.15 K, x2 = 0.8149 | 915.2
293.15 K, x2 = 0.8742 | 899.6
293.15 K, x2 = 0.9368 | 883.5
303.15 K, x2 = 0 | 1180.6
303.15 K, x2 = 0.0489 | 1159.1
303.15 K, x2 = 0.1278 | 1126.2
303.15 K, x2 = 0.1974 | 1098.6
303.15 K, x2 = 0.2484 | 1079.4
303.15 K, x2 = 0.3149 | 1055.2
303.15 K, x2 = 0.3759 | 1034.1
303.15 K, x2 = 0.4349 | 1014.5
303.15 K, x2 = 0.4876 | 997.7
303.15 K, x2 = 0.5498 | 978.5
303.15 K, x2 = 0.5922 | 965.9
303.15 K, x2 = 0.659 | 946.7
303.15 K, x2 = 0.7249 | 928.4
303.15 K, x2 = 0.7941 | 910
303.15 K, x2 = 0.8578 | 893.5
303.15 K, x2 = 0.9247 | 876.8
313.15 K, x2 = 0 | 1161.3
313.15 K, x2 = 0.0662 | 1133.7
313.15 K, x2 = 0.1258 | 1110
313.15 K, x2 = 0.1835 | 1088
313.15 K, x2 = 0.2458 | 1065.3
313.15 K, x2 = 0.3342 | 1034.7
313.15 K, x2 = 0.3958 | 1014.5
313.15 K, x2 = 0.4592 | 994.6
313.15 K, x2 = 0.5135 | 978.2
313.15 K, x2 = 0.5629 | 963.7
313.15 K, x2 = 0.6248 | 946.2
313.15 K, x2 = 0.6724 | 933.2
313.15 K, x2 = 0.7383 | 915.7
313.15 K, x2 = 0.7873 | 903.2
313.15 K, x2 = 0.8534 | 886.7
313.15 K, x2 = 0.9378 | 866.4
323.15 K, x2 = 0 | 1142.4
323.15 K, x2 = 0.0635 | 1117.4
323.15 K, x2 = 0.1139 | 1098.3
323.15 K, x2 = 0.1729 | 1076.8
323.15 K, x2 = 0.2384 | 1054
323.15 K, x2 = 0.3248 | 1025.4
323.15 K, x2 = 0.3859 | 1006.2
323.15 K, x2 = 0.4523 | 986.2
323.15 K, x2 = 0.5048 | 971
323.15 K, x2 = 0.5733 | 951.9
323.15 K, x2 = 0.6387 | 934.4
323.15 K, x2 = 0.7038 | 917.6
323.15 K, x2 = 0.7587 | 903.8
323.15 K, x2 = 0.8137 | 890.5
323.15 K, x2 = 0.8698 | 877.2
323.15 K, x2 = 0.9247 | 864.5
333.15 K, x2 = 0 | 1124
333.15 K, x2 = 0.0587 | 1102.4
333.15 K, x2 = 0.1328 | 1076.2
333.15 K, x2 = 0.1849 | 1058.6
333.15 K, x2 = 0.2489 | 1037.9
333.15 K, x2 = 0.3186 | 1016.2
333.15 K, x2 = 0.3767 | 998.9
333.15 K, x2 = 0.435 | 982.2
333.15 K, x2 = 0.4957 | 965.5
333.15 K, x2 = 0.5549 | 949.7
333.15 K, x2 = 0.6247 | 931.8
333.15 K, x2 = 0.6978 | 913.8
333.15 K, x2 = 0.7629 | 898.4
333.15 K, x2 = 0.8247 | 884.2
333.15 K, x2 = 0.8624 | 875.7
333.15 K, x2 = 0.9358 | 859.5
343.15 K, x2 = 0 | 1106
343.15 K, x2 = 0.0524 | 1088.2
343.15 K, x2 = 0.1125 | 1068.5
343.15 K, x2 = 0.1828 | 1046.3
343.15 K, x2 = 0.2398 | 1029.1
343.15 K, x2 = 0.3049 | 1010.2
343.15 K, x2 = 0.3673 | 992.8
343.15 K, x2 = 0.4348 | 974.7
343.15 K, x2 = 0.4817 | 962.6
343.15 K, x2 = 0.5428 | 947.3
343.15 K, x2 = 0.6048 | 932.3
343.15 K, x2 = 0.6721 | 916.5
343.15 K, x2 = 0.7498 | 899
343.15 K, x2 = 0.8247 | 882.7
343.15 K, x2 = 0.8827 | 870.5
343.15 K, x2 = 0.9478 | 857
353.15 K, x2 = 0 | 1088.4
353.15 K, x2 = 0.0629 | 1069.2
353.15 K, x2 = 0.1272 | 1050.2
353.15 K, x2 = 0.1947 | 1031
353.15 K, x2 = 0.2598 | 1013.3
353.15 K, x2 = 0.3138 | 999
353.15 K, x2 = 0.3945 | 978.6
353.15 K, x2 = 0.4629 | 962
353.15 K, x2 = 0.5148 | 949.8
353.15 K, x2 = 0.5749 | 936.1
353.15 K, x2 = 0.6345 | 923
353.15 K, x2 = 0.7039 | 908.2
353.15 K, x2 = 0.7635 | 895.8
353.15 K, x2 = 0.8137 | 885.7
353.15 K, x2 = 0.8642 | 875.7
353.15 K, x2 = 0.9248 | 863.9
